Source: ChEMBL document CHEMBL5728939, “Myocyte enhancer factor 2 (MEF2) modulators” (2022)

What was measured:
[1] = molecular target: Histone acetyltransferase p300/Myocyte-specific enhancer factor 2D (Homo sapiens, UniProt Q09472+Q14814); assay: Inhibitory Effects of the Compounds on MEF2D and P300 Protein Interactions: Detection of MEF2D and P300 interactions. The same system that was used in Example 19 is used in here to detect MEF2D and P300 interactions. In this assay, two separate DNA constructs were made with MEF2D fused with the GAL4 DNA binding domain (GAL4-MEF2D) and P300 fused with the viral transactivator VP-16 […] epithelial carcinoma cells (HeLa) were co-transfected with the two DNA constructs (GAL4-MEF2D and P300-VP16) and a reporter plasmid (Gal4Luc). […] MEF2D and P300 protein interactions were detected as a result of the GAL4-MEF2D and P300-VP16 protein complex binding a DNA promoter on the reporter plasmid (Gal4Luc) and driving cellular expression of a luciferase gene. The measured luciferase protein signal was proportional to the amount of MEF2D and P300 protein interactions occurring with the cell.
Chain of Histone acetyltransferase p300/Myocyte-specific enhancer factor 2D (Q09472 whole entry, the tested form may be a part): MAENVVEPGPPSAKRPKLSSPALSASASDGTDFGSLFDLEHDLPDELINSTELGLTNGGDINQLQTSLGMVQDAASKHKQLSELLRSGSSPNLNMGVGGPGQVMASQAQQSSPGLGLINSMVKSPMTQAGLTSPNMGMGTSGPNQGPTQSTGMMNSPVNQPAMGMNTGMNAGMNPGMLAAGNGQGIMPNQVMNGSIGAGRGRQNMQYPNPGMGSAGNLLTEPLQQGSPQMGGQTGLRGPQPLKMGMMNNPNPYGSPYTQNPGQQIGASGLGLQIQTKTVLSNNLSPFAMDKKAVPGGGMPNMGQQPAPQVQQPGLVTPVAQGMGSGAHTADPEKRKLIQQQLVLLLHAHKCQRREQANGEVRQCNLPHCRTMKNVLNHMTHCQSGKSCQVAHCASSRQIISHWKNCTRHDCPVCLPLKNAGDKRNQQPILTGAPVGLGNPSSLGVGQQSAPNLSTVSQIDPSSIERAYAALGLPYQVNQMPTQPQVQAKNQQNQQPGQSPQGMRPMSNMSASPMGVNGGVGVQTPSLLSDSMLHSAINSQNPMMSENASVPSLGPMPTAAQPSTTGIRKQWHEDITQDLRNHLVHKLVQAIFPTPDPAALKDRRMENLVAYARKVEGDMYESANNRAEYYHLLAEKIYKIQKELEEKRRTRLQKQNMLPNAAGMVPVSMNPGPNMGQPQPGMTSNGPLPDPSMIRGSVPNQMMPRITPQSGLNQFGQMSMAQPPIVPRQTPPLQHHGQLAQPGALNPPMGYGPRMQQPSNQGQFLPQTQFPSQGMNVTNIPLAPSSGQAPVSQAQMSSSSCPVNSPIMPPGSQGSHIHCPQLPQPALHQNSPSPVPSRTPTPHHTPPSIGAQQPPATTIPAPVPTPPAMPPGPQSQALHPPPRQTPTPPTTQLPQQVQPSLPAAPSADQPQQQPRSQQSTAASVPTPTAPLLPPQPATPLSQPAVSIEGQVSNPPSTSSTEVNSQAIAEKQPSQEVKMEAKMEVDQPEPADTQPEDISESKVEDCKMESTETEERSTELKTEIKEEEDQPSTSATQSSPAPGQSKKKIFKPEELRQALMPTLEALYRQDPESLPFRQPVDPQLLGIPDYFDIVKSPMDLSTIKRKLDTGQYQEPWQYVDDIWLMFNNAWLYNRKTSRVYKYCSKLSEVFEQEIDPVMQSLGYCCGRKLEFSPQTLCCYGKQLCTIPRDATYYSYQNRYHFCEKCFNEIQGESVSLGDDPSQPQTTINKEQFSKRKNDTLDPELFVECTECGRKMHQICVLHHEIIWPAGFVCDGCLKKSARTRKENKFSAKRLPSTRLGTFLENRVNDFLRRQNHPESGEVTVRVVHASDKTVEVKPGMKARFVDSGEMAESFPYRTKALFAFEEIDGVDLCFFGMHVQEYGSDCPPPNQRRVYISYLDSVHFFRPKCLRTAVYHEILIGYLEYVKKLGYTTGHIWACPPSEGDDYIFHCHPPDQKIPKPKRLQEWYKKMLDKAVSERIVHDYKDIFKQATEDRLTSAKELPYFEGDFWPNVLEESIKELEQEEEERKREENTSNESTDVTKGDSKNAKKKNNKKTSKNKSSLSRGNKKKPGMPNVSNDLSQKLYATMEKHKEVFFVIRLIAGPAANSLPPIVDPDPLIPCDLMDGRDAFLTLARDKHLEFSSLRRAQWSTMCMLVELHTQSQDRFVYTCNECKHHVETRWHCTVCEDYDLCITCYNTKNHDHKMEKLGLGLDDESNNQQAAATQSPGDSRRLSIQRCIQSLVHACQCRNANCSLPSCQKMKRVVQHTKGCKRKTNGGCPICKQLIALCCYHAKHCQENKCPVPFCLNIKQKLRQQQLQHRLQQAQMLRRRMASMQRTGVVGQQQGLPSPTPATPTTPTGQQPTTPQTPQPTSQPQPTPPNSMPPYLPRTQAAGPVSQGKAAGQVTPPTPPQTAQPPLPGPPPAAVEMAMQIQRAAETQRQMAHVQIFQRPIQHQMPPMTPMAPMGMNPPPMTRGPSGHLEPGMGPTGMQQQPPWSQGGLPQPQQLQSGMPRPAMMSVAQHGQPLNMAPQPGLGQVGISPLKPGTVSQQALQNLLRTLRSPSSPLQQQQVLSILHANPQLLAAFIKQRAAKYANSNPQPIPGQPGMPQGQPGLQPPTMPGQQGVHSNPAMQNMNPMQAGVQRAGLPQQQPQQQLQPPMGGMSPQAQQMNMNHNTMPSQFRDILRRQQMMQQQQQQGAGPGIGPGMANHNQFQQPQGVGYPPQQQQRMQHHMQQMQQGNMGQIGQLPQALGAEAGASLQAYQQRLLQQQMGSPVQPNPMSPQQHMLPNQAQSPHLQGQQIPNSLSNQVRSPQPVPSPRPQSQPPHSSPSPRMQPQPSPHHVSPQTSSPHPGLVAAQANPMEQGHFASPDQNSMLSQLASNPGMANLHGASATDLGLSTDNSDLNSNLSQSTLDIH
Chain of Histone acetyltransferase p300/Myocyte-specific enhancer factor 2D (Q14814 whole entry, the tested form may be a part): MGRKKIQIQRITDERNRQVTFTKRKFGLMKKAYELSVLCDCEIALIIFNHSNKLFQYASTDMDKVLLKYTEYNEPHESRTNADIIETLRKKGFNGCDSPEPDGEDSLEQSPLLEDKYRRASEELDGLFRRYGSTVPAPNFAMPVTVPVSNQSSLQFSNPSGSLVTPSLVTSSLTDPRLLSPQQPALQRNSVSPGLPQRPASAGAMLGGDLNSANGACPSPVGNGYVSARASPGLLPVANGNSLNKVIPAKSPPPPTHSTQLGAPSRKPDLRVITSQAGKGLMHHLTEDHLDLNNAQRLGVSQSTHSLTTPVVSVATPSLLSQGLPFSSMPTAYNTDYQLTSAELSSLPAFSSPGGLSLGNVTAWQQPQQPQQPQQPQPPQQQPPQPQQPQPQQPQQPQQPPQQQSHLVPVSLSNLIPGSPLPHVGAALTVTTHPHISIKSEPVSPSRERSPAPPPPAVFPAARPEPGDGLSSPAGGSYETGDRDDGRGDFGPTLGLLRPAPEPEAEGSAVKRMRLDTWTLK

[2] = molecular target: Histone deacetylase 4/Myocyte-specific enhancer factor 2D (Homo sapiens, UniProt P56524+Q14814); assay: Inhibitory Effects of the Compounds on MEF2D and HDAC4 Protein Interactions: Detection of MEF2D and HDAC4 interactions. In this mammalian two-hybrid assay, HDAC4 and MEF2D proteins were used. […] Human epithelial carcinoma cells (HeLa) were co-transfected with the two DNA constructs (GAL4-MEF2D and HDAC4-VP16) and a reporter plasmid (Gal4Luc). […] MEF2D and HDAC4 protein interactions were detected as a result of the GAL4-MEF2D and HDAC4-VP16 protein complex binding a DNA promoter on the reporter plasmid (Gal4Luc) and driving cellular expression of a luciferase gene. The measured luciferase protein signal was proportional to the amount of MEF2D and HDAC4 protein interactions occurring with the cell.
Chain of Histone deacetylase 4/Myocyte-specific enhancer factor 2D (P56524 whole entry, the tested form may be a part): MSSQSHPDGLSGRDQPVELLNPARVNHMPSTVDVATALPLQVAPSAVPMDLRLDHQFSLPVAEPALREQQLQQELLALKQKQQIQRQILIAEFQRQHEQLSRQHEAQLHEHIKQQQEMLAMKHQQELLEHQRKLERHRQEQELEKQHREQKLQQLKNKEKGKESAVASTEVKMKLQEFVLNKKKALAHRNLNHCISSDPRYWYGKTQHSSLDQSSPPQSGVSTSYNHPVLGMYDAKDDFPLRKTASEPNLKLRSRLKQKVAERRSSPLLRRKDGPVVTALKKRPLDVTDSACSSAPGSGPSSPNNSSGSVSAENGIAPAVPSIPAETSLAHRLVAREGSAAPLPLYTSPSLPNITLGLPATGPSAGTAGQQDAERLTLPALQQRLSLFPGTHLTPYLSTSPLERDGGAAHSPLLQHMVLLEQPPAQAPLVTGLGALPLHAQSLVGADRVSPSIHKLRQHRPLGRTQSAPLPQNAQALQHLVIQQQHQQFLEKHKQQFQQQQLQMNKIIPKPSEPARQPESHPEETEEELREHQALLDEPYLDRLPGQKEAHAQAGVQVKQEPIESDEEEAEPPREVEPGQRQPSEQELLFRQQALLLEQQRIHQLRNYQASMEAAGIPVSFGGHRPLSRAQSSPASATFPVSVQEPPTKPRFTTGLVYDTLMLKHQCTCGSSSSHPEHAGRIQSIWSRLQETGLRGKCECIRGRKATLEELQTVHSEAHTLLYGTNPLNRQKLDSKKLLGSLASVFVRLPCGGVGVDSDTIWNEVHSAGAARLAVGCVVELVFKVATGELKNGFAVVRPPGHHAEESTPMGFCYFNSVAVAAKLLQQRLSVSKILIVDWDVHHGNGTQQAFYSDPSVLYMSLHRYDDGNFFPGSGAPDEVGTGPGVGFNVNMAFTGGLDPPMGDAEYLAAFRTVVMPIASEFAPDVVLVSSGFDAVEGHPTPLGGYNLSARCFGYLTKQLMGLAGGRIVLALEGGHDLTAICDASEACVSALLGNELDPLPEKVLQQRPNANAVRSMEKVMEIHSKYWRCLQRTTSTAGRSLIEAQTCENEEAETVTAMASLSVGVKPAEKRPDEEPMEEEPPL
Chain of Histone deacetylase 4/Myocyte-specific enhancer factor 2D (Q14814 whole entry, the tested form may be a part): as the sequence (Q14814 whole entry, the tested form may be a part) above

Row | IC50 [1] | IC50 [2] | Structure (SMILES)
1 | 720 nM | 7270 nM | Nc1ccccc1NC(=O)/C=C/c1cccc(CNc2ccc3ccccc3c2)c1
2 | 270 nM | 510 nM | Cc1[nH]c2ccccc2c1CCNCc1cccc(/C=C/C(=O)Nc2ccccc2N)c1
3 | 700 nM | 800 nM | Nc1ccccc1NC(=O)CCCCC(NC(=O)c1ccccc1)C(=O)Nc1ccccc1 (stereo unspecified)
